Common to all, as to experiment: relative viability (nuclei count vs DMSO), 5 days (fraction); higher = more cells survive
Compound in assay [1]: COc1cc(N2CCC(N3CCN(C)CC3)CC2)ccc1Nc1ncc(Cl)c(Nc2ccccc2S(=O)(=O)C(C)C)n1 [NVP-TAE684] + NC(=O)Nc1cc(-c2cccc(F)c2)sc1C(=O)N[C@H]1CCCNC1 [AZD7762] (partner 0.2 µM)
The method, boiled down:
(§1)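 Relative viability was taken as the ratio of nuclei in treated wells to nuclei in vehicle wells. Lung cancer cell lines in 1536-well plates received compounds by pin tool one day after seeding, either one drug alone or a fixed anchor-drug dose plus five library-drug doses (not always all listed) in √10 steps. Nuclei were counted on 4× images after 5 days of treatment, and values are medians of duplicate plates.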

Compound in assay [2]: COc1cc(N2CCC(N3CCN(C)CC3)CC2)ccc1Nc1ncc(Cl)c(Nc2ccccc2S(=O)(=O)C(C)C)n1 [NVP-TAE684] + CC(=O)Nc1cccc(-n2c(=O)n(C3CC3)c(=O)c3c(Nc4ccc(I)cc4F)n(C)c(=O)c(C)c32)c1 [Trametinib] (partner 0.02 µM)
The method in brief:
as §1

Compound in assay [3]: C#Cc1cccc(Nc2ncnc3cc(OC)c(OCCCCCCC(=O)NO)cc23)c1 [CUDC-101] + Nc1ncn([C@H]2C[C@H](O)[C@@H](CO)O2)c(=O)n1 [Decitabine] (partner 2 µM)
The method, boiled down:
as §1

Compound in assay [4]: COc1cc(N2CCC(N3CCN(C)CC3)CC2)ccc1Nc1ncc(Cl)c(Nc2ccccc2S(=O)(=O)C(C)C)n1 [NVP-TAE684] + O=C(CCCCCCC(=O)Nc1ccccc1)NO [Vorinostat] (partner 1 µM)
The method, boiled down: as §1

Compound in assay [5]: C1=CC=C2C(=C1)N=C(S2)C(C#N)C3=NC(=NC=C3)NCCC4=CN=CC=C4 + NC(=O)Nc1cc(-c2cccc(F)c2)sc1C(=O)N[C@H]1CCCNC1 [AZD7762] (partner 0.2 µM)
The method, boiled down: as §1

Among the data in the supplement of paper PMC10307832 are relative viability values, retold here.

As for EMC-BAC-2, the relative viability was 1.12 in assay [1] (first compound 0.2 µM); 0.536 in assay [1] (first compound 2 µM); 0.89 in assay [2] (first compound 0.2 µM); 0.822 in assay [2] (first compound 0.6325 µM); 0.47 in assay [2] (first compound 2 µM); 1.09 in assay [3] (first compound 0.01 µM). Moreover, the relative viability came out at 0.925 in assay [3] (first compound 0.03162 µM); 0.948 in assay [3] (first compound 0.1 µM); 0.952 in assay [3] (first compound 0.3162 µM); 0.654 in assay [3] (first compound 1 µM); 0.46 in assay [4] (first compound 0.2 µM); 0.338 in assay [4] (first compound 0.6325 µM). The relative viability in assay [4] (first compound 2 µM) amounted to 0.393; in assay [5] (first compound 0.005 µM) it was 1.13; in assay [5] (first compound 0.01581 µM), 1.04; in assay [5] (first compound 0.05 µM) it was 0.945; in assay [5] (first compound 0.1581 µM) it was 1.22; in assay [5] (first compound 0.5 µM), 0.875.
With EPLC-272H, the relative viability in assay [1] (first compound 0.2 µM) came to 0.175; in assay [1] (first compound 0.6325 µM), 0.175; in assay [1] (first compound 2 µM), 0.208; in assay [2] (first compound 0.2 µM), 0.296; in assay [2] (first compound 0.6325 µM), 0.25; in assay [2] (first compound 2 µM), 0.243. The relative viability in assay [3] (first compound 0.01 µM) came out at 0.327; in assay [3] (first compound 0.03162 µM) it was 0.363; in assay [3] (first compound 0.1 µM), 0.341; in assay [3] (first compound 0.3162 µM) it was 0.301; in assay [3] (first compound 1 µM), 0.309; in assay [4] (first compound 0.2 µM), 0.644. The relative viability came out at 0.283 in assay [4] (first compound 0.6325 µM); 0.2 in assay [4] (first compound 2 µM); 0.307 in assay [5] (first compound 0.005 µM); 0.243 in assay [5] (first compound 0.01581 µM); 0.254 in assay [5] (first compound 0.05 µM); 0.25 in assay [5] (first compound 0.1581 µM). The relative viability in assay [5] (first compound 0.5 µM) worked out at 0.21.
For H3255, the relative viability in assay [1] (first compound 0.2 µM) is 0.939; in assay [1] (first compound 0.6325 µM) it was 0.823; in assay [1] (first compound 2 µM) it was 0.881; in assay [2] (first compound 0.2 µM), 0.569; in assay [2] (first compound 0.6325 µM) it was 0.611; in assay [2] (first compound 2 µM), 0.631. Further, the relative viability was 0.643 in assay [3] (first compound 0.01 µM); 0.549 in assay [3] (first compound 0.03162 µM); 0.227 in assay [3] (first compound 0.3162 µM); 0.15 in assay [3] (first compound 1 µM); 0.855 in assay [4] (first compound 0.2 µM); 0.757 in assay [4] (first compound 0.6325 µM). In addition, the relative viability in assay [4] (first compound 2 µM) came to 0.667; in assay [5] (first compound 0.005 µM), 0.993; in assay [5] (first compound 0.01581 µM) it was 0.876; in assay [5] (first compound 0.05 µM), 0.912; in assay [5] (first compound 0.1581 µM), 0.916; in assay [5] (first compound 0.5 µM), 0.829.
For the cell line HARA, the relative viability in assay [1] (first compound 0.2 µM) is 0.305; in assay [1] (first compound 0.6325 µM) it was 0.286; in assay [1] (first compound 2 µM), 0.258; in assay [2] (first compound 0.2 µM) it was 0.575; in assay [2] (first compound 0.6325 µM) it was 0.69; in assay [2] (first compound 2 µM) it was 0.155. The relative viability in assay [3] (first compound 0.01 µM) is 0.446; in assay [3] (first compound 0.03162 µM) it was 0.515; in assay [3] (first compound 0.3162 µM), 0.464; in assay [3] (first compound 1 µM) it was 0.254; in assay [4] (first compound 0.2 µM), 0.525; in assay [4] (first compound 0.6325 µM) it was 0.464. Besides, the relative viability in assay [4] (first compound 2 µM) stood at 0.23; in assay [5] (first compound 0.005 µM), 0.2; in assay [5] (first compound 0.01581 µM), 0.358; in assay [5] (first compound 0.05 µM), 0.38; in assay [5] (first compound 0.1581 µM), 0.275; in assay [5] (first compound 0.5 µM) it was 0.356.
Turning to HCC-15, the relative viability is 1.11 in assay [1] (first compound 0.2 µM); 1.36 in assay [1] (first compound 0.6325 µM); 0.806 in assay [1] (first compound 2 µM); 0.355 in assay [2] (first compound 0.2 µM); 0.418 in assay [2] (first compound 0.6325 µM); 0.186 in assay [2] (first compound 2 µM). In addition, the relative viability was 0.579 in assay [3] (first compound 0.01 µM); 0.628 in assay [3] (first compound 0.03162 µM); 0.655 in assay [3] (first compound 0.1 µM); 0.621 in assay [3] (first compound 0.3162 µM); 0.443 in assay [3] (first compound 1 µM); 0.841 in assay [4] (first compound 0.2 µM). Also, the relative viability stood at 0.855 in assay [4] (first compound 0.6325 µM); 0.521 in assay [4] (first compound 2 µM); 1.02 in assay [5] (first compound 0.005 µM); 1.23 in assay [5] (first compound 0.01581 µM); 1.25 in assay [5] (first compound 0.05 µM); 1.51 in assay [5] (first compound 0.1581 µM). In addition, in assay [5] (first compound 0.5 µM), the relative viability was found to be 1.24.
HCC-44: the relative viability in assay [1] (first compound 0.2 µM) was determined as 1.03; in assay [1] (first compound 0.6325 µM), 1.08; in assay [1] (first compound 2 µM), 1.03; in assay [2] (first compound 0.2 µM) it was 0.982; in assay [2] (first compound 0.6325 µM), 1.08; in assay [2] (first compound 2 µM), 0.926. In addition, the relative viability in assay [3] (first compound 0.01 µM) stood at 0.908; in assay [3] (first compound 0.03162 µM), 1.03; in assay [3] (first compound 0.1 µM) it was 0.912; in assay [3] (first compound 0.3162 µM), 0.906; in assay [3] (first compound 1 µM) it was 0.913; in assay [4] (first compound 0.2 µM), 1.18. For the same cell line, the relative viability in assay [4] (first compound 0.6325 µM) stood at 1.14; in assay [4] (first compound 2 µM), 0.928; in assay [5] (first compound 0.005 µM) it was 1.12; in assay [5] (first compound 0.01581 µM), 0.984; in assay [5] (first compound 0.05 µM), 1.01; in assay [5] (first compound 0.1581 µM), 0.997. The relative viability in assay [5] (first compound 0.5 µM) was 0.998.
For the cell line HCC-78, the relative viability in assay [1] (first compound 0.2 µM) is 0.603; in assay [1] (first compound 0.6325 µM) it was 0.52; in assay [1] (first compound 2 µM) it was 0.376; in assay [2] (first compound 0.2 µM), 0.603; in assay [2] (first compound 0.6325 µM) it was 0.57; in assay [2] (first compound 2 µM), 0.401. In addition, the relative viability was 0.738 in assay [3] (first compound 0.01 µM); 0.591 in assay [3] (first compound 0.03162 µM); 0.719 in assay [3] (first compound 0.1 µM); 0.624 in assay [3] (first compound 0.3162 µM); 0.433 in assay [3] (first compound 1 µM); 0.316 in assay [4] (first compound 0.2 µM). For the same cell line, the relative viability stood at 0.411 in assay [4] (first compound 0.6325 µM); 0.23 in assay [4] (first compound 2 µM); 0.619 in assay [5] (first compound 0.005 µM); 0.593 in assay [5] (first compound 0.01581 µM); 0.739 in assay [5] (first compound 0.05 µM); 0.697 in assay [5] (first compound 0.1581 µM). In addition, in assay [5] (first compound 0.5 µM), the relative viability came to 0.576.
HCC-366: the relative viability in assay [1] (first compound 0.2 µM) turned out to be 0.269; in assay [1] (first compound 0.6325 µM), 0.194; in assay [1] (first compound 2 µM), 0.218; in assay [2] (first compound 0.2 µM), 0.352; in assay [2] (first compound 0.6325 µM), 0.374; in assay [2] (first compound 2 µM), 0.14. Further, the relative viability was determined as 0.335 in assay [3] (first compound 0.01 µM); 0.33 in assay [3] (first compound 0.03162 µM); 0.339 in assay [3] (first compound 0.1 µM); 0.383 in assay [3] (first compound 0.3162 µM); 0.354 in assay [3] (first compound 1 µM); 0.365 in assay [4] (first compound 0.2 µM). Besides, the relative viability in assay [4] (first compound 0.6325 µM) is 0.311; in assay [4] (first compound 2 µM), 0.239; in assay [5] (first compound 0.005 µM), 0.199; in assay [5] (first compound 0.01581 µM), 0.254; in assay [5] (first compound 0.05 µM), 0.288; in assay [5] (first compound 0.1581 µM), 0.279. For the same cell line, the relative viability in assay [5] (first compound 0.5 µM) stood at 0.129.
